The assay has as its system OVCAR4 cells. The experiment in a line: Mini drug screen, proliferation by DAPI staining and Cellomics imaging. Type of assay: cell-based, human. The following applies: OVCAR4. The text has this: Since CX-5461 in combination with BMN-673 lead to increased DNA damage, we hypothesized that combining CX-5461 with PARPi or other DNA repair and DDR inhibitors (DDR therapy) may improve the efficacy of treating HGSOC. We therefore performed a focused/boutique drug screen in the HR-proficient OVCAR4 cells for DNA repair and DDR inhibitors that may cooperate with CX-5461 to enhance growth arrest (Fig. 8a). […] We next examined the cooperation between CX-5461 and BMN-673 or ATRi in inducing cell death in three additional HR-proficient HGSOC cell lines (Supplementary Fig. 3C) and identified robust and significant interactions between BMN-673 and CX-5461 in inducing cell death compared with the ATRi (VE-821) (Fig. 8b). In addition, dose-response curves of BMN-673 in the presence or absence of CX-5461 confirmed CX-5461’s strong interaction with BMN-673 (Fig. 8c).
Colour-coding denotes the level of proliferation as measured by DAPI staining and imaging using Cellomics (green denotes reduced proliferation). Dose response of single drug treatments were corrected for vehicle control and the combination was corrected for response to 80 nM CX-5461, the average values of n = 5 are presented. The combination of CX-5461 with BMN-673 or ATRi is highlighted by yellow boxes. b Quantitation of SubG1 DNA content by PI staining of cells treated with vehicle, 100 nM CX-5461, 1 μM VE-821, 100 nM BMN-673 or in combination for 7 days (n = 3 biologically independent experiments). Error bars represent mean ± SEM. Flow cytometry gating strategy is shown in Supplementary Fig. 3D. C) Representative BMN-673 dose response curves ± 30 nM CX-5461. Cell proliferation was measured using SRB assays at 5 days post-treatment. Dose response curves for BMN-673 were corrected for DMSO treatment control and the combination was corrected for response to 30 nM CX-5461. Representative of three biological replicates. Error bars represent mean ± SEM of n = 5 technical replicates. d BrdU cell cycle analysis of cells treated with vehicle, 1 μM CX-5461, 100 nM BMN-673 or in combination for 72 h as described in Fig. 3b and Supplementary Fig. 3D. n = 3, mean ± SEM. e In vitro proliferation time-course assessed by cell confluency using IncuCyte ZOOM. Representative of n = 3 biological replicates, mean ± SEM of five technical replicates. Dashed lines denote re-supplement of media with drugs. f CX-5461 and BMN-673 cooperate in inhibiting clonogenic survival. Representative image of n = 6 biologically independent experiments for OVCAR8 and OVCAR8 RAD51C KO cells and n = 3 biological replicates for FT282 cells, mean ± SEM. g Clonogenic assay of OV90 cells. n = 3 technical replicates. Statistical analysis (in b, d and f) was performed using a two-sided one-way ANOVA, Tukey’s multiple comparisons test (adjusted p-values are shown). TEXT PRINTED IN THE PICTURE: (a) CX-5461: GI20 80 nM

With `Cc1cnc(CNC(=O)c2c(=O)c3ccc(N4CCCN(C)CC4)nc3n3c2sc2ccccc23)cn1` [CX-5461], the GI20 turned out to be 0.08 µM.

The values above are taken from publication PMC7251123, “CX-5461 activates the DNA damage response and demonstrates therapeutic efficacy in high-grade serous ovarian cancer” (Nature Communications, 2020).
